Source: US9828350B2, “5,6-dihydro-2H-[1,4]oxazin-3-yl-amine derivatives useful as inhibitors of beta-secretase (BACE)” (Janssen Pharmaceutica NV, priority 2010, dated 2017)

Assays:
[1] = tested on: Abeta 1-42; experiment: Cellular αLisa assay in SKNBE2 cells, Abeta 1-42; format: cell-based, human; settings: incubated for 18 hours; for IC50: Homo sapiens, SKNBE2, 18 h, read-out: Cellular αLisa assay in SKNBE2 cells Abeta 42 pIC50 (converted)
Procedure, shortened: (§1)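 Secreted Abeta levels were measured by sandwich αLisa, pairing biotin-AbN/25 donor beads with Ab4G8 acceptor beads for total Abeta or cAb42/26 for Abeta 1-42, read at 615 nm after 650 nm excitation following 1 hour. Cells were SKNBE2 expressing wild-type hAPP695, exposed to compound for 18 hours.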

[2] = target: recombinant BACE1 protein (Homo sapiens, UniProt P56817); experiment: Biochemical FRET based assay; settings: recombinant BACE1 1 μg/ml, 120 minutes at room temperature, pH 5.0; for IC50: read-out: Biochemical FRET based assay pIC50 (converted)
Sequence of recombinant BACE1 protein (P56817 46-501): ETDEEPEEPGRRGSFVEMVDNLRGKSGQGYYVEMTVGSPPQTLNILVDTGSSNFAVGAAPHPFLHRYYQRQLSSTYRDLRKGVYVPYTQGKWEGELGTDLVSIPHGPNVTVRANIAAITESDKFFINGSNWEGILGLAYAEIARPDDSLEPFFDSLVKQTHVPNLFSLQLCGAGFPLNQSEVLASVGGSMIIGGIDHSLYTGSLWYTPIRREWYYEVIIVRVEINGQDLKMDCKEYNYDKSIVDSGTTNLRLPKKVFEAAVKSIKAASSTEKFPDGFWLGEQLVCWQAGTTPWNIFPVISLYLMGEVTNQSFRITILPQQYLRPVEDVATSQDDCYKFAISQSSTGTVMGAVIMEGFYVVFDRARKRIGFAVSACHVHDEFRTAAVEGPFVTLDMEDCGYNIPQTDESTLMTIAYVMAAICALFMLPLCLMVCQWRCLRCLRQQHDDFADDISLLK
Procedure, shortened: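 Proteolysis was read as the rise in donor fluorescence (320 nm excitation, 405 nm emission) from T0 to T120, expressed in RFU. The reaction ran 120 minutes at room temperature at pH 5.0 in citrate buffer with 4% DMSO, using […] quenched Swedish APP peptide and 1 μg/ml BACE1.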

[3] = tested on: Abeta total; experiment: Cellular αLisa assay in SKNBE2 cells, Abeta total; format: cell-based, human; settings: incubated for 18 hours; for IC50: Homo sapiens, SKNBE2, 18 h, read-out: Cellular αLisa assay in SKNBE2 cells Abetatotal pIC50 (converted)
Procedure, shortened: as §1

| SMILES | Cellular αLisa assay in SKNBE2 cells Abeta 42 pIC50 [1] | Biochemical FRET based assay pIC50 [2] | Cellular αLisa assay in SKNBE2 cells Abetatotal pIC50 [3] | IC50 [1] [nM] | IC50 [2] [nM] | IC50 [3] [nM] |
| --- | --- | --- | --- | --- | --- | --- |
| CC1(c2cccc(NC(=O)c3ccc(C#N)cc3)c2)COCC(N)=N1.Cl (racemic) [Compound 42] | 5.85 | 5.74 | 5.9 | – | – | – |
| CC1(c2cccc(-c3cncnc3)c2)N=C(N)COC1(F)C(F)(F)F (single isomer, unassigned) [Compound 140] | <5 | – | <5 | – | > 30200 | – |
| COc1cncc(-c2cccc(C3(C)N=C(N)COC3C(F)(F)F)c2)c1 (single isomer, unassigned) [Compound 103] | 6.38 | – | 6.35 | – | 2090 | – |
| C[C@@]1(c2cccc(-c3cncnc3)c2)COC2(CC2)C(N)=N1 [Compound 74] | – | – | – | 195 | 4170 | 204 |
| CC1(c2cc(-c3cncnc3)c(F)cc2F)N=C(N)COC1F (single isomer, unassigned) [Compound 81] | – | – | – | 1230 | 8910 | 1200 |
| COc1cncc(-c2cccc(C3(C)N=C(N)COC3F)c2)c1 (single isomer, unassigned) [Compound 89] | 6.51 | – | 6.67 | – | 5500 | – |
| CC1(c2cccc(-c3cncnc3)c2)N=C(N)COC1(F)C(F)(F)F (single isomer, unassigned) [Compound 139] | <5 | – | <5 | – | > 30200 | – |
| CC1(c2cc(NC(=O)c3ccc(F)cn3)ccc2F)COCC(N)=N1 (stereo not drawn) [Compound 25] | 7.93 | 6.93 | 7.9 | – | – | – |
| COc1cncc(-c2cccc(C3(C)N=C(N)COC3F)c2)c1 (single isomer, unassigned) [Compound 92] | 5.47 | – | 5.51 | – | 15100 | – |
| COc1ccc(-c2cc(C3(C)COCC(N)=N3)c(F)cc2F)cc1 (stereo not drawn) [Compound 33] | 5.72 | 4.91 | 5.75 | – | – | – |
| COc1cnc(C(=O)Nc2cccc(C3(C)COC(F)(C(F)(F)F)C(N)=N3)c2)cn1 (single isomer, unassigned) [Compound 158] | – | – | – | > 10000 | > 30200 | > 10000 |
| COc1cnc(C(=O)Nc2cccc(C3(C)N=C(N)COC3(F)C(F)(F)F)c2)cn1 (single isomer, unassigned) [Compound 178] | 5.33 | – | 5.35 | – | 20000 | – |
| NC1=N[C@@](c2cc(-c3cncnc3)ccc2F)(C2CC2)[C@H](F)OC1 [Compound 224, (5R,6S)-5-cyclopropyl-6-fluoro-5-(2-fluoro-5-pyrimidin-5-ylphenyl)-5,6-dihydro-2H-1,4-oxazin-3-amine] | – | – | – | > 10000 | 14800 | > 10000 |
| CCC1(c2cc(-c3cncnc3)ccc2F)N=C(N)COC1(F)C(F)(F)F (stereo not drawn) [Compound 302] | <5 | – | <5 | – | > 30200 | – |
| COc1cccc(-c2cc([C@]3(C)COCC(N)=N3)c(F)cc2F)c1 [Compound 47] | 6.79 | 5.95 | 6.83 | – | – | – |
| CC1(c2cccc(NC(=O)c3ccc(Cl)cn3)c2)COC(F)(C(F)(F)F)C(N)=N1 (single isomer, unassigned) [Compound 154] | <5 | <4.52 | <5 | – | – | – |
| CC1(c2cc(-c3ccc(Cl)cc3)c(F)cc2F)COCC(N)=N1 (stereo not drawn) [Compound 34] | 5.54 | 5.05 | 5.58 | – | – | – |
| CC1(c2cc(-c3cc(Cl)cc(Cl)c3)ccn2)COCC(N)=N1 (racemic) [Compound 121] | 6.43 | 5.73 | 6.48 | – | – | – |
| NC1=N[C@@](c2cc(-c3cncnc3)ccc2F)(C2CC2)[C@](F)(C(F)(F)F)OC1 [Compound 312] | – | – | – | 3240 | 661 | 2820 |
| CC1(c2cc(-c3cccc(C#N)c3)c(F)cc2F)COCC(N)=N1 (stereo not drawn) [Compound 32] | 6.2 | 4.87 | 6.25 | – | – | – |
| N#Cc1cncc(-c2ccc(F)c([C@@]3(C4CC4)N=C(N)CO[C@H]3F)c2)c1 [Compound 223] | – | – | – | > 10000 | 24500 | > 10000 |
| C[C@@]1(c2cc(NC(=O)c3ccc(Cl)cc3F)ccc2F)COCC(N)=N1.Cl [Compound 68] | 7.06 | 6.35 | 7.04 | – | – | – |
| C[C@]1(c2cc(-c3cncnc3)c(F)cc2F)COCC(N)=N1 [Compound 155] | <5 | <4.52 | <5 | – | – | – |

Continued, values first:

| Cellular αLisa assay in SKNBE2 cells Abeta 42 pIC50 [1] | Biochemical FRET based assay pIC50 [2] | Cellular αLisa assay in SKNBE2 cells Abetatotal pIC50 [3] | IC50 [1] [nM] | IC50 [2] [nM] | IC50 [3] [nM] | SMILES |
| --- | --- | --- | --- | --- | --- | --- |
| – | – | – | 60.3 | 97.7 | 53.7 | COc1cnc(C(=O)Nc2cccc(C3(C)N=C(N)COC3F)c2)cn1 (stereo not drawn) [Compound 80] |
| – | – | – | 6.31 | 35.5 | 6.61 | N#Cc1ccc(C(=O)Nc2cccc([C@@]3(C4CC4)N=C(N)CO[C@H]3C(F)(F)F)c2)nc1 [Compound 225, (2R,3R)—N-{3-[5-amino-3-cyclopropyl-2-(trifluoromethyl)-3,6-dihydro-2H-1,4-oxazin-3-yl]phenyl}-5-cyanopyridine-2-carboxamide] |
| – | – | – | 240 | 263 | 263 | C[C@]1(c2cccc(NC(=O)c3ncc(Cl)cc3Cl)c2)N=C(N)CO[C@@]1(F)C(F)(F)F [Compound 243] |
| 6.92 | – | 6.95 | – | > 30200 | – | NC1=NC(c2cccc(NC(=O)c3ccc(Cl)cn3)c2)(C2CC2)COC1 (single isomer, unassigned) [Compound 196] |
| 8.35 | 7.48 | 8.36 | – | – | – | Cc1cc(Cl)cnc1C(=O)Nc1ccc(F)c([C@]2(C)COCC(N)=N2)c1 [Compound 143] |
| 5.19 | <4.52 | 5.04 | – | – | – | CC1(c2cccc(NC(=O)c3ccc(Cl)cn3)c2)N=C(N)COC1F (single isomer, unassigned) [Compound 122] |
| – | – | – | 12 | 31.6 | 12.9 | NC1=N[C@@](c2cc(NC(=O)c3ccc(Cl)cn3)ccc2F)(C2CC2)[C@H](C(F)(F)F)OC1 [Compound 233] |
| – | – | – | 6.61 | 21.9 | 5.89 | C[C@]1(c2cccc(NC(=O)c3ncc(C#N)cc3Cl)c2)N=C(N)CO[C@]1(F)C(F)(F)F [Compound 245] |
| – | – | – | 12.3 | 20.4 | 12.3 | C[C@]1(c2cccc(NC(=O)c3ncc(Cl)cc3Cl)c2)N=C(N)CO[C@]1(F)C(F)(F)F [Compound 242] |
| – | – | – | 30.2 | 67.6 | 24.5 | CCC1(c2cc(NC(=O)c3ncc(Cl)cc3F)ccc2F)N=C(N)COC1F (stereo not drawn) [Compound 283] |
| 7.57 | 6.05 | 7.66 | – | – | – | Cc1cccnc1C(=O)Nc1ccc(F)c(C2(C)COCC(N)=N2)c1 (stereo not drawn) [Compound 30] |
| 8.37 | 7.11 | 8.4 | – | – | – | CC1(c2cc(NC(=O)c3ncc(Cl)cc3F)ccc2F)COCC(N)=N1 (stereo not drawn) [Compound 35] |
| – | – | – | 58.9 | 61.7 | 56.2 | NC1=N[C@@](c2cccc(NC(=O)c3cnc(OCC(F)(F)F)cn3)c2)(C2CC2)[C@@H](F)OC1 [Compound 275] |
| – | – | – | 794 | 110 | 708 | N#Cc1ccc(C(=O)Nc2ccc(F)c([C@@]3(C4CC4)N=C(N)CO[C@@H]3F)c2)nc1 [Compound 214, (2R,3R)—N-[3-(5-amino-3-cyclopropyl-2-fluoro-3,6-dihydro-2H-1,4-oxazin-3-yl)-4-fluorophenyl]-5-cyanopyridine-2-carboxamide] |
| 7.41 | 6.86 | 7.47 | – | – | – | N#Cc1ccc(C(=O)Nc2cccc(C3(C4CC4)N=C(N)COC3C(F)(F)F)c2)nc1 (stereo not drawn) [Compound 226] |
| – | – | – | 13.8 | 45.7 | 13.5 | COc1cnc(C(=O)Nc2ccc(F)c([C@@]3(C4CC4)N=C(N)CO[C@H]3C(F)(F)F)c2)cn1 [Compound 230] |
| – | – | – | 19.1 | 38.9 | 17.4 | Cc1cc(Cl)cnc1C(=O)Nc1cccc([C@@]2(C3CC3)N=C(N)CO[C@@H]2F)c1 [Compound 297] |
